pIC50: −log10 of the molar value.
Target: T1, full length AKT E17K (Homo sapiens, UniProt P31749, E17K)
T1 construct: host or cells: HEK-293 (ATCC CRL-1573)
Experiment: NanoBRET Target Engagement (TE) Assay
Assay type: cell-based
Conditions: competitive displacement of tracer in cells, read-out: AKT1 E17K IC50
In short: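 Compound and tracer incubated 2 h before luminescence at donor 450 nm and acceptor 600 nm, with extracellular signal inhibited. EC50 by sigmoidal variable-slope regression.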

T1 sequence (P31749 whole entry E17K): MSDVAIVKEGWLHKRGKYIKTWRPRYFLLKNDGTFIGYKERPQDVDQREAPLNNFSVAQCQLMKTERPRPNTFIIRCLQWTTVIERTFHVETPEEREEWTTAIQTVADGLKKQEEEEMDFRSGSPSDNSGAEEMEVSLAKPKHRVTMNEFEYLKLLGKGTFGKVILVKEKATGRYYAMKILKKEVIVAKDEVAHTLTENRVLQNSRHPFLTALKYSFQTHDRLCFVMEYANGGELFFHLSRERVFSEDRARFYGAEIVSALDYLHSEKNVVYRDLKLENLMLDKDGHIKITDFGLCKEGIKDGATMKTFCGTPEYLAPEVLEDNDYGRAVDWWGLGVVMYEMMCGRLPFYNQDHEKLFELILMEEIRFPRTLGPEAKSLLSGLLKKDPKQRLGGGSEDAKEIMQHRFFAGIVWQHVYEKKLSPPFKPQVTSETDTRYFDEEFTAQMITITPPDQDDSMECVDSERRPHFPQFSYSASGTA

SMILES	pIC50
COc1ccc(-c2ccc3nc(-c4cccnc4N)n(-c4ccc(CN5CCC(Nc6ccnc(C#N)n6)CC5)cc4)c3n2)cn1 [Example 516, 4-((1-(4-(2-(2-Aminopyridin-3-yl)-5-(6-methoxypyridin-3-yl)-3H-imidazo[4,5-b]pyridin-3-yl)benzyl)piperidin-4-yl)amino)pyrimidine-2-carbonitrile]	> 7.82
N#Cc1nccc(NC2CCN(Cc3ccc(-n4c(-c5cccnc5N)nc5ccc(-c6cccc(N)c6)nc54)cc3)CC2)n1 [Example 517, 4-((1-(4-(5-(3-Aminophenyl)-2-(2-aminopyridin-3-yl)-3H-imidazo[4,5-b]pyridin-3-yl)benzyl)piperidin-4-yl)amino)pyrimidine-2-carbonitrile]	> 7.82
CC(C)C(=O)Nc1cccc(-c2ccc3nc(-c4cccnc4N)n(-c4ccc(CN5CCC(Nc6ccnc(C#N)n6)CC5)cc4)c3n2)c1 [Example 518, N-(3-(2-(2-Aminopyridin-3-yl)-3-(4-((4-((2-cyanopyrimidin-4-yl)amino)piperidin-1-yl)methyl)phenyl)-3H-imidazo[4,5-b]pyridin-5-yl)phenyl)isobutyramide]	> 7.82
CC(C)C(=O)Nc1cccc(-c2ccc3nc(-c4cccnc4NC(=O)C(C)C)n(-c4ccc(CN5CCC(Nc6ccnc(C#N)n6)CC5)cc4)c3n2)c1 [Example 519, N-(3-(3-(4-((4-((2-cyanopyrimidin-4-yl)amino)piperidin-1-yl)methyl)phenyl)-2-(2-isobutyramidopyridin-3-yl)-3H-imidazo[4,5-b]pyridin-5-yl)phenyl)isobutyramide]	7.22 to 7.82
COC(=O)Nc1cccc(-c2ccc3nc(-c4cccnc4N)n(-c4ccc(CN5CCC(Nc6ccnc(C#N)n6)CC5)cc4)c3n2)c1 [Example 520, Methyl (3-(2-(2-aminopyridin-3-yl)-3-(4-((4-((2-cyanopyrimidin-4-yl)amino)piperidin-1-yl)methyl)phenyl)-3H-imidazo[4,5-b]pyridin-5-yl)phenyl)carbamate]	> 7.82
CN(C)c1cccc(-c2ccc3nc(-c4cccnc4N)n(-c4ccc(CN5CCC(Nc6ccnc(C#N)n6)CC5)cc4)c3n2)c1 [Example 521, 4-((1-(4-(2-(2-Aminopyridin-3-yl)-5-(3-(dimethylamino)phenyl)-3H-imidazo[4,5-b]pyridin-3-yl)benzyl)piperidin-4-yl)amino)pyrimidine-2-carbonitrile]	> 7.82
CC(=O)N(C)C1CCN(c2cccc(-c3ccc4nc(-c5cccnc5N)n(-c5ccc(CN6CCC(Nc7ccnc(C#N)n7)CC6)cc5)c4n3)c2)CC1 [Example 522, N-(1-(3-(2-(2-Aminopyridin-3-yl)-3-(4-((4-((2-cyanopyrimidin-4-yl)amino)piperidin-1-yl)methyl)phenyl)-3H-imidazo[4,5-b]pyridin-5-yl)phenyl)piperidin-4-yl)-N-methylacetamide]	7.22 to 7.82
Cc1cc(F)ccc1-c1ccc2nc(-c3cccnc3N)n(-c3ccc(CN4CCC(Nc5ccnc(C#N)n5)CC4)cc3)c2n1 [Example 523, 4-((1-(4-(2-(2-Aminopyridin-3-yl)-5-(4-fluoro-2-methylphenyl)-3H-imidazo[4,5-b]pyridin-3-yl)benzyl)piperidin-4-yl)amino)pyrimidine-2-carbonitrile]	7.22 to 7.82
N#Cc1nccc(NC2CCN(Cc3ccc(-n4c(-c5cccnc5N)nc5ccc(-c6ccc(F)cc6C(N)=O)nc54)cc3)CC2)n1 [Example 524, 2-(2-(2-aminopyridin-3-yl)-3-(4-((4-((2-cyanopyrimidin-4-yl)amino)piperidin-1-yl)methyl)phenyl)-3H-imidazo[4,5-b]pyridin-5-yl)-5-fluorobenzamide]	5.00 to 6.22
N#Cc1nccc(NC2CCN(Cc3ccc(-n4c(-c5cccnc5N)nc5ccc(-c6ccc(F)cc6C#N)nc54)cc3)CC2)n1 [Example 525, 4-((1-(4-(2-(2-Aminopyridin-3-yl)-5-(2-cyano-4-fluorophenyl)-3H-imidazo[4,5-b]pyridin-3-yl)benzyl)piperidin-4-yl)amino)pyrimidine-2-carbonitrile]	7.22 to 7.82
N#Cc1nccc(NC2CCN(Cc3ccc(-n4c(-c5cccnc5N)nc5ccc(-c6ccc(F)cc6C(F)(F)F)nc54)cc3)CC2)n1 [Example 526, 4-((1-(4-(2-(2-Aminopyridin-3-yl)-5-(4-fluoro-2-(trifluoromethyl)phenyl)-3H-imidazo[4,5-b]pyridin-3-yl)benzyl)piperidin-4-yl)amino)pyrimidine-2-carbonitrile]	5.00 to 6.22
Cc1ccccc1-c1ccc2nc(-c3cccnc3N)n(-c3ccc(CN4CCC(Nc5ccnc(C#N)n5)CC4)cc3)c2n1 [Example 527, 4-((1-(4-(2-(2-Aminopyridin-3-yl)-5-(o-tolyl)-3H-imidazo[4,5-b]pyridin-3-yl)benzyl)piperidin-4-yl)amino)pyrimidine-2-carbonitrile]	> 7.82
Cc1cccc(-c2ccc3nc(-c4cccnc4N)n(-c4ccc(CN5CCC(Nc6ccnc(C#N)n6)CC5)cc4)c3n2)c1 [Example 528, 4-((1-(4-(2-(2-Aminopyridin-3-yl)-5-(m-tolyl)-3H-imidazo[4,5-b]pyridin-3-yl)benzyl)piperidin-4-yl)amino)pyrimidine-2-carbonitrile]	> 7.82
Cc1ccc(-c2ccc3nc(-c4cccnc4N)n(-c4ccc(CN5CCC(Nc6ccnc(C#N)n6)CC5)cc4)c3n2)cc1 [Example 529, 4-((1-(4-(2-(2-Aminopyridin-3-yl)-5-(p-tolyl)-3H-imidazo[4,5-b]pyridin-3-yl)benzyl)piperidin-4-yl)amino)pyrimidine-2-carbonitrile]	> 7.82
N#Cc1nccc(NC2CCN(Cc3ccc(-n4c(-c5cccnc5N)nc5ccc(-c6cccc(C(F)(F)F)c6)nc54)cc3)CC2)n1 [Example 530, 4-((1-(4-(2-(2-Aminopyridin-3-yl)-5-(3-(trifluoromethyl)phenyl)-3H-imidazo[4,5-b]pyridin-3-yl)benzyl)piperidin-4-yl)amino)pyrimidine-2-carbonitrile]	7.22 to 7.82
CC(C)OC(=O)c1ccc2nc(-c3cccnc3N)n(-c3ccc(CN4CCC(Nc5ccnc(C#N)n5)CC4)cc3)c2n1 [Example 531, Isopropyl 2-(2-aminopyridin-3-yl)-3-(4-((4-((2-cyanopyrimidin-4-yl)amino)piperidin-1-yl)methyl)phenyl)-3H-imidazo[4,5-b]pyridine-5-carboxylate]	> 7.82
N#Cc1nccc(NC2CCN(Cc3ccc(-n4c(-c5cccnc5N)nc5ccccc54)cc3)CC2)n1 [Example 532, 4-((1-(4-(2-(2-Aminopyridin-3-yl)-1H-benzo[d]imidazol-1-yl)benzyl)piperidin-4-yl)amino)pyrimidine-2-carbonitrile]	6.22 to 7.22
N#Cc1nccc(NC2CCN(Cc3ccc(-n4c(-c5cccnc5N)nc5ncccc54)cc3)CC2)n1 [Example 533, 4-((1-(4-(2-(2-Aminopyridin-3-yl)-1H-imidazo[4,5-b]pyridin-1-yl)benzyl)piperidin-4-yl)amino)pyrimidine-2-carbonitrile]	6.22 to 7.22
Cc1ccc(-c2ccc3nc(-c4cccnc4N)n(-c4ccc(CN5CCC(Nc6ccnc(C#N)n6)CC5)cc4)c3n2)cn1 [Example 534, 4-((1-(4-(2-(2-Aminopyridin-3-yl)-5-(6-methylpyridin-3-yl)-3H-imidazo[4,5-b]pyridin-3-yl)benzyl)piperidin-4-yl)amino)pyrimidine-2-carbonitrile]	> 7.82

Reference: patent US12209087B2, “AKT1 modulators” (Alterome Therapeutics, Inc., priority 2022, dated 2025)
